The assay deals with Histamine H1 receptor (Cavia porcellus, UniProt P31389).

“And” between values parts separate entries of the source, which are not always exact repeats. Equal values may be shown once.

Histamine H1 receptor, sequence (P31389 whole entry): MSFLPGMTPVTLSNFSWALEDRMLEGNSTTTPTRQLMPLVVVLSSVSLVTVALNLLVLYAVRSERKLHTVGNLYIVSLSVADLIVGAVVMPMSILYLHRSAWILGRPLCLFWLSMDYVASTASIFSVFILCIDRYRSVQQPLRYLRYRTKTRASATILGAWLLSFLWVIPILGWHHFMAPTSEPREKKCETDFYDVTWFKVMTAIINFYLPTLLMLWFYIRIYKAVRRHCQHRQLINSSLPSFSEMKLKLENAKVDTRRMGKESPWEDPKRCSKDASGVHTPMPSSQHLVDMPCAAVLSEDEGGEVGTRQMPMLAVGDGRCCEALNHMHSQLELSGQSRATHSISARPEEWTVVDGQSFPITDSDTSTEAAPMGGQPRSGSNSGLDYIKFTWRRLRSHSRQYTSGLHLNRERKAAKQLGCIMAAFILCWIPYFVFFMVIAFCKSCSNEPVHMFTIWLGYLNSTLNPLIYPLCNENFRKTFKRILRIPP

The Ki is the equilibrium dissociation constant of an inhibitor or competing ligand from its target. For the molecule `Nc1nc2c(ncn2[C@@H]2O[C@H](COP(=O)(O)OP(=O)(O)OP(=O)(O)O)C(O)C2O)c(=O)[nH]1` (stereo partly drawn) [+ 1 mM GTP], the Ki was over 10000 nM.

Turning to `Cc1ccc(/C(=C\CN2CCCC2)c2ccccn2)cc1` [Actahist], the Ki is 0.93 nM and 0.69 nM. As for `O=C(O)C=CC(=O)Oc1ccc(Cl)cc1` [NSC_6445134], the figure is 98 nM and 80.1 nM. With `CN(C)[C@@H]1Cc2ccccc2[C@H](c2ccccc2)C1` [cis-H2-PAT(+)] the figure was 53.8 nM and 77.7 nM. In the case of `CN(C)C1Cc2ccccc2C(c2ccccc2)C1` (stereo not drawn) [cis-H2-PAT(+/-)], the Ki is 10.9 nM and 7.87 nM and 1.53 nM and 1.37 nM. With `CN(C)[C@H]1Cc2ccccc2[C@@H](c2ccccc2)C1` [cis-H2-PAT(-)] the figure was 3.92 nM and 4.91 nM. In the case of `CN(C)[C@H]1Cc2ccccc2[C@H](c2ccccc2)C1` [trans-H2-PAT(+)], the Ki is 23 nM and 11.5 nM. Regarding `CN(C)[C@@H]1Cc2ccccc2[C@@H](c2ccccc2)C1` [trans-PAT], the Ki is 1.15 nM and 0.58 nM.

Values taken from BindingDB's records for doi:10.1124/jpet.302.1.328 (University of North Carolina at Chapel Hill, 2002).
